ChEMBL document CHEMBL3132769, “Fragment growing to retain or alter the selectivity of anchored kinase hinge-binding fragments” (Medchemcomm, 2014)

Key:
[1] = biological target: T1, Mitogen-activated protein kinase 12 (Homo sapiens) (UniProt P53778); experiment: Inhibition of human full length p38 gamma expressed in Escherichia coli cell assessed as substrate phosphorylation using fluorescence-labelled peptides as substrate at 8 uM after 90 mins by microfluidic peptide phosphorylation assay
T1 sequence (whole entry): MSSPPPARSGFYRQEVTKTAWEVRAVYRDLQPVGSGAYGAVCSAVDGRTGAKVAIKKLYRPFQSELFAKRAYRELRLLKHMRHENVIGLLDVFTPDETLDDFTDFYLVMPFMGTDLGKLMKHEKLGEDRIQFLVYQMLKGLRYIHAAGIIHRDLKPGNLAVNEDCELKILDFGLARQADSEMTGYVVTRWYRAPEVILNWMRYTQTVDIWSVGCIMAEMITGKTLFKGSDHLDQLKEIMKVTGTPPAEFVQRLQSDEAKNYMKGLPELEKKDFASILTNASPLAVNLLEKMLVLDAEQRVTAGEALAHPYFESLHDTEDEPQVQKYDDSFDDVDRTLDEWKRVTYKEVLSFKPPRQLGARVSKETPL

[2] = biological target: Ribosomal protein S6 kinase alpha-3 (Homo sapiens) (UniProt P51812); experiment: Inhibition of human full length RSK2 expressed in baculovirus assessed as substrate phosphorylation using fluorescence-labelled peptides as substrate at 2 uM after 90 mins by microfluidic peptide phosphorylation assay
[3] = biological target: Protein kinase C gamma type (Homo sapiens) (UniProt P05129); experiment: Inhibition of human truncated PKC gamma expressed in baculovirus assessed as substrate phosphorylation using fluorescence-labelled peptides as substrate at 2 uM after 90 mins by microfluidic peptide phosphorylation assay
[4] = biological target: Protein kinase C beta type (Homo sapiens) (UniProt P05771); experiment: Inhibition of human truncated PKC beta1 expressed in baculovirus assessed as substrate phosphorylation using fluorescence-labelled peptides as substrate at 0.1 uM after 90 mins by microfluidic peptide phosphorylation assay
Protein kinase C beta type (Homo sapiens), sequence (P05771 2-671 limits assumed): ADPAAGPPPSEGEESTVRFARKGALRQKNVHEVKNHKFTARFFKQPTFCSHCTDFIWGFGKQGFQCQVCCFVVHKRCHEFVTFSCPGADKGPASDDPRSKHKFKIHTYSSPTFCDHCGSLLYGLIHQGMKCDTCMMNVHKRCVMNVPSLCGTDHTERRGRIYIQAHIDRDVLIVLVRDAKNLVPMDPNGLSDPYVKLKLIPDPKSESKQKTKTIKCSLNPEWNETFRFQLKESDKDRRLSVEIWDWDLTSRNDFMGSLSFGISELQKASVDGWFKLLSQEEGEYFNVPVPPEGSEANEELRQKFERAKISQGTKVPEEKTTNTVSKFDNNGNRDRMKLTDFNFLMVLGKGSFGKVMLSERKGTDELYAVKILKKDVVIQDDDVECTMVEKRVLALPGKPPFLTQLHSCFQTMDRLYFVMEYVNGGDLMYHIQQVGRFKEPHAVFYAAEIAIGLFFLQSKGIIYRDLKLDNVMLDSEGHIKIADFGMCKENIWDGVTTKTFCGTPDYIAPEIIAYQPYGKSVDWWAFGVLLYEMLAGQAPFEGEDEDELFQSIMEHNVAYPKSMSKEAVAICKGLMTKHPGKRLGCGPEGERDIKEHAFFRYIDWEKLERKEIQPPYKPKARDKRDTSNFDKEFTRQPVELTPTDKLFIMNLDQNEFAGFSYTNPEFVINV

[5] = tested on: T2, Receptor-type tyrosine-protein kinase FLT3 (Homo sapiens), P36888 [D835Y]; experiment: Inhibition of human FLT3 D835Y mutant catalytic domain expressed in baculovirus assessed as substrate phosphorylation using fluorescence-labelled peptides as substrate at 0.1 uM after 90 mins by microfluidic peptide phosphorylation assay
T2 sequence (whole entry): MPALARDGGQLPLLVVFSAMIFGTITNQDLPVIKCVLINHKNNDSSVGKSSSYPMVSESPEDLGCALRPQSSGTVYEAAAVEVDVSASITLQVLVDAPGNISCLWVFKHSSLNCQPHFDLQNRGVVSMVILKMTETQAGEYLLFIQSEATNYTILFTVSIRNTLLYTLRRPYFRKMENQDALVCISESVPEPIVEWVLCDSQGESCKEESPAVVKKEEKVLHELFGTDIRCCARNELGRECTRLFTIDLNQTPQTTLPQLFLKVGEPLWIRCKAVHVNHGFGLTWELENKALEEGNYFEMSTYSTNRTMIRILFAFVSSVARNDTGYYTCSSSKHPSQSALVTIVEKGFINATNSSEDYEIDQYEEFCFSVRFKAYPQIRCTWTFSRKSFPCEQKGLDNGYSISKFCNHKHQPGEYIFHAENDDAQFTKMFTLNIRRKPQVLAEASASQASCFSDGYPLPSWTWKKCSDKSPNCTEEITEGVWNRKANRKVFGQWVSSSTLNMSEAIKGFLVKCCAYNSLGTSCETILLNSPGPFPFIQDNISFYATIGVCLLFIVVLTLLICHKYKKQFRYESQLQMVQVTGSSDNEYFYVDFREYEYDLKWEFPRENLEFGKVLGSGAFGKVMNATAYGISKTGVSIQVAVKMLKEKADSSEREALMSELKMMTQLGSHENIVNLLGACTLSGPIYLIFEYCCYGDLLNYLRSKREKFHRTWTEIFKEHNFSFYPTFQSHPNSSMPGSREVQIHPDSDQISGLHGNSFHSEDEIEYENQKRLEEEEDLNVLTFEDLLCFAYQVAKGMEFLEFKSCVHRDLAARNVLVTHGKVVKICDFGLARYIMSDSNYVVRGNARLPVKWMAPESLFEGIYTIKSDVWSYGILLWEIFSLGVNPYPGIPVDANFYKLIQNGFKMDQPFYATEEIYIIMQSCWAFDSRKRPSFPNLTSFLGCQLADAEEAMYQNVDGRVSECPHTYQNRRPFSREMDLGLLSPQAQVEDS

[6] = biological target: Mitogen-activated protein kinase 3 (Homo sapiens) (UniProt P27361); experiment: Inhibition of human full length ERK1 expressed in Escherichia coli cell assessed as substrate phosphorylation using fluorescence-labelled peptides as substrate at 0.1 uM after 90 mins by microfluidic peptide phosphorylation assay
Mitogen-activated protein kinase 3 (Homo sapiens), sequence (P27361 whole entry): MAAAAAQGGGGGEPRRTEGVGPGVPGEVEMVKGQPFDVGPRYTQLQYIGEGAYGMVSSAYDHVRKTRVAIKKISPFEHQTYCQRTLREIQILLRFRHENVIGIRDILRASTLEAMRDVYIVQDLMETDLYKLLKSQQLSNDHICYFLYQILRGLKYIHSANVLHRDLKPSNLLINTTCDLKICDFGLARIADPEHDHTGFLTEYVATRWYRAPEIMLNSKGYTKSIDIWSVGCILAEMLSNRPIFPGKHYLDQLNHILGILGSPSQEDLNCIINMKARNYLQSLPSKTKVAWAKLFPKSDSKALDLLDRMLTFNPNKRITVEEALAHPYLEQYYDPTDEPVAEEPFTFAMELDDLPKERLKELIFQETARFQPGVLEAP

[7] = biological target: T3, Testis-specific serine/threonine-protein kinase 1 (Homo sapiens) (UniProt Q9BXA7); experiment: Inhibition of human full length TSSK1 expressed in baculovirus assessed as substrate phosphorylation using fluorescence-labelled peptides as substrate at 95 uM after 90 mins by microfluidic peptide phosphorylation assay
T3 sequence (whole entry): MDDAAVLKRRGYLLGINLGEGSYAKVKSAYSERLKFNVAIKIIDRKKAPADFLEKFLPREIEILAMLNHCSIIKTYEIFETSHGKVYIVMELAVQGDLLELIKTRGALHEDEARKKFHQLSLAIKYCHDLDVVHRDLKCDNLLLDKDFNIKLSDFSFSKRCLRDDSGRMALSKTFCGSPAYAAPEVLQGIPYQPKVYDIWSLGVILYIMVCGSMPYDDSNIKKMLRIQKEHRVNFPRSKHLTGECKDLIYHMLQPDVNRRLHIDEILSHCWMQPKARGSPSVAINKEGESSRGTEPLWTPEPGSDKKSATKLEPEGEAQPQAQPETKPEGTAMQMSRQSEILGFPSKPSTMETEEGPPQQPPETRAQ

[8] = biological target: Fibroblast growth factor receptor 3 (Homo sapiens) (UniProt P22607); experiment: Inhibition of human FGFR3 catalytic domain expressed in baculovirus assessed as substrate phosphorylation using fluorescence-labelled peptides as substrate at 95 uM after 90 mins by microfluidic peptide phosphorylation assay
Fibroblast growth factor receptor 3 (Homo sapiens), sequence (P22607 23-806 limits assumed): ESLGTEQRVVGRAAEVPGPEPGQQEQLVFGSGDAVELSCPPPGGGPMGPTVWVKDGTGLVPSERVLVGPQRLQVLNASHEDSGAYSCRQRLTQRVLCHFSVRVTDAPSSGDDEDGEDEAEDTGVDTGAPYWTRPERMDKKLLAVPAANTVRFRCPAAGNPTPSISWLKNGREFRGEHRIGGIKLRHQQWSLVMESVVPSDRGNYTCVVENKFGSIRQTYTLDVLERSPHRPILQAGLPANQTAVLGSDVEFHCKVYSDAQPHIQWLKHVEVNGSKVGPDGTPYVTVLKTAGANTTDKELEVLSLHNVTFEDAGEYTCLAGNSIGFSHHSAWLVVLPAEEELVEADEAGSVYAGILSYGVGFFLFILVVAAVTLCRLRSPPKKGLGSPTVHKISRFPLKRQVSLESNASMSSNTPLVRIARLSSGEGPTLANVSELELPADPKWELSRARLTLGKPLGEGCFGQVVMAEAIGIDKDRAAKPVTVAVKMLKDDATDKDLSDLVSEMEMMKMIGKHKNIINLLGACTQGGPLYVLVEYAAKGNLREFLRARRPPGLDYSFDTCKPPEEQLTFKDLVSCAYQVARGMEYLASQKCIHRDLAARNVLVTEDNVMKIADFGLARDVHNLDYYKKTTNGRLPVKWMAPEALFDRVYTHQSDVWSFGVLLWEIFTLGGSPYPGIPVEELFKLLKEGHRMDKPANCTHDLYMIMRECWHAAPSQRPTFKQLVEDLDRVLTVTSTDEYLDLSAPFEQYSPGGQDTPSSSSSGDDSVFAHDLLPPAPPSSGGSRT

[9] = biological target: Epidermal growth factor receptor (Homo sapiens) (UniProt P00533); experiment: Inhibition of human EGFR catalytic domain expressed in baculovirus assessed as substrate phosphorylation using fluorescence-labelled peptides as substrate at 70 uM after 90 mins by microfluidic peptide phosphorylation assay
Epidermal growth factor receptor (Homo sapiens), sequence (P00533 whole entry, the tested form may be a part): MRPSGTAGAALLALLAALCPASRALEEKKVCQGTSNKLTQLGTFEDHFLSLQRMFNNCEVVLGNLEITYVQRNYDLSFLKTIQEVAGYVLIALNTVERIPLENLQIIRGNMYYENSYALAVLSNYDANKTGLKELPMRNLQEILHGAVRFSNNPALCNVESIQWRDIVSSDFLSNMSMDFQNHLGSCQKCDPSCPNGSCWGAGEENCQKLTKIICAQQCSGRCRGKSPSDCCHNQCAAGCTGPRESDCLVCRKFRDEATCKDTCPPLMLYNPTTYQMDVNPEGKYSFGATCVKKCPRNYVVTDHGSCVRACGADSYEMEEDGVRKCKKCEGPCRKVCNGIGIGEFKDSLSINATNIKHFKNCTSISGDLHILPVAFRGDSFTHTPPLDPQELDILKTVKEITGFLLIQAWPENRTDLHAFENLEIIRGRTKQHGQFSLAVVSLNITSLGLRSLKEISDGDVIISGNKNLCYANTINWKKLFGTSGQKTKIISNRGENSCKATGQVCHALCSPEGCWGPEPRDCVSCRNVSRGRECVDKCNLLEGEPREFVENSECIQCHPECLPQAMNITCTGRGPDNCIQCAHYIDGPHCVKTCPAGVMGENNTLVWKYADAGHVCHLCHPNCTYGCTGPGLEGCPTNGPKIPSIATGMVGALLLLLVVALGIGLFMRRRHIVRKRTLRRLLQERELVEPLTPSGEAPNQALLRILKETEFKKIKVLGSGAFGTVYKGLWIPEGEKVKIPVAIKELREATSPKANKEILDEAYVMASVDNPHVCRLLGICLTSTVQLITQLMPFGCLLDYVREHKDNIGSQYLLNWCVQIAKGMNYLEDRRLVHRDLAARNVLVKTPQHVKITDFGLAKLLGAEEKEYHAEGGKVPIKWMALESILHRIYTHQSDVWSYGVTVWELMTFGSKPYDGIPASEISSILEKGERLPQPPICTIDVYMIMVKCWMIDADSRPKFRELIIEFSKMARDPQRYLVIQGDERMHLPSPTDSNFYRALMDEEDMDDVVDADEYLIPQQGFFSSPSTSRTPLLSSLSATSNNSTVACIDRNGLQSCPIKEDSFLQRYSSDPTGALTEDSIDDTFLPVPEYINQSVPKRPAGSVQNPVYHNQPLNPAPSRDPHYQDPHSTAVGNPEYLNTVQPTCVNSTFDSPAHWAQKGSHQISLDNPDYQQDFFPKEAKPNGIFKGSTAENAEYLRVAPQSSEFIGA

[10] = biological target: Tyrosine-protein kinase BTK (Homo sapiens) (UniProt Q06187); experiment: Inhibition of human full length BTK expressed in baculovirus assessed as substrate phosphorylation using fluorescence-labelled peptides as substrate at 70 uM after 90 mins by microfluidic peptide phosphorylation assay
Tyrosine-protein kinase BTK (Homo sapiens), sequence (Q06187 whole entry, the tested form may be a part, canonical isoform): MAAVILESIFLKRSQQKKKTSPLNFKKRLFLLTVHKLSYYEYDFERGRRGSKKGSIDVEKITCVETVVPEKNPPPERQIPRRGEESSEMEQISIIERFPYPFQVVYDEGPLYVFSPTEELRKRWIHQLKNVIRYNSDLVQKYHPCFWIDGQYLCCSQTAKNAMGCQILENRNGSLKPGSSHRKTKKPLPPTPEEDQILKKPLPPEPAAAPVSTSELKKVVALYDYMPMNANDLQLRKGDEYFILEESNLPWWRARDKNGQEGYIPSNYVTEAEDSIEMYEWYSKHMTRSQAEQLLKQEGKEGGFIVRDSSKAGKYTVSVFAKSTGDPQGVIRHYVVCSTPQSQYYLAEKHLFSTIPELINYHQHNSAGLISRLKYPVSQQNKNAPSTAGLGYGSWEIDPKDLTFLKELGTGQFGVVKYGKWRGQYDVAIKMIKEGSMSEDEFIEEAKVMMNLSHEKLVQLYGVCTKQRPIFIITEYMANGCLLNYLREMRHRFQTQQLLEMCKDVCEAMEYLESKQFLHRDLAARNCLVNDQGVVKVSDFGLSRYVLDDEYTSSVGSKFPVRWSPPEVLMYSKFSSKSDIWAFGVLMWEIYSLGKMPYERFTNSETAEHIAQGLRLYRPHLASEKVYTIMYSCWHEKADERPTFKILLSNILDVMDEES

[11] = biological target: Casein kinase I isoform delta (Homo sapiens) (UniProt P48730); experiment: Inhibition of human CK1D catalytic domain expressed in Escherichia coli cell assessed as substrate phosphorylation using fluorescence-labelled peptides as substrate at 420 uM after 90 mins by microfluidic peptide phosphorylation assay
Casein kinase I isoform delta (Homo sapiens), sequence (P48730 whole entry, looked up, the tested form may be a part, canonical isoform): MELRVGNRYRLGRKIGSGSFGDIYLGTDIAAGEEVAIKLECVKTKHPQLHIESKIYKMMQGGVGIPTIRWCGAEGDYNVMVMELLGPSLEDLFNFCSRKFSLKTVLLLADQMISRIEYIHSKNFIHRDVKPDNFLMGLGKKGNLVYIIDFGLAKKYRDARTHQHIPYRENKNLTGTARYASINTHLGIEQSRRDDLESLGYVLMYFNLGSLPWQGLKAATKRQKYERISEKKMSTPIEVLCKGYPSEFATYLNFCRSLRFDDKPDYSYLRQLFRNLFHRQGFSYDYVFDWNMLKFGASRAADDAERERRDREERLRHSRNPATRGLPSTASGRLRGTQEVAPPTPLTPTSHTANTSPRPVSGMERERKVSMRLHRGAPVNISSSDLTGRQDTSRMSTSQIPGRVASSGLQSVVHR

NCC1CCN(c2ncnc3[nH]ccc23)CC1
inhibition [1]: 5%

NC1CCN(c2ncnc3[nH]ccc23)CC1
inhibition [2]: 2%
inhibition [3]: 57.5%

C[C@H](CN(C)C)Oc1nc(Nc2cc3cccc(Cl)c3cn2)cnc1C#N
inhibition [4]: 3%
inhibition [5]: 27%
inhibition [6]: 1%

NCCc1ccc(-c2ncnc3[nH]cnc23)cc1
inhibition [7]: 89%
inhibition [8]: 27%

CNCc1ccc(-c2ncnc3[nH]cnc23)cc1
inhibition [9]: 16.5%
inhibition [10]: 0%

c1nc(N2CCOCC2)c2nc[nH]c2n1
inhibition [11]: 81.5%
